Experimental data published in patent US20060281755A1, “SYNERGISTIC MODULATION OF FLT3 KINASE USING AMINOPYRIMIDINES KINASE MODULATORS” (priority 2005, published 2006).

Columns and labels:
[1] = molecular target: T1, FLT ligand-induced wild-type FLT3 phosphorylation in Baf3 FLT3 cells (Homo sapiens, UniProt P36888); assay: Cell-based FLT3 receptor ELISA
T1 sequence (P36888 27-993): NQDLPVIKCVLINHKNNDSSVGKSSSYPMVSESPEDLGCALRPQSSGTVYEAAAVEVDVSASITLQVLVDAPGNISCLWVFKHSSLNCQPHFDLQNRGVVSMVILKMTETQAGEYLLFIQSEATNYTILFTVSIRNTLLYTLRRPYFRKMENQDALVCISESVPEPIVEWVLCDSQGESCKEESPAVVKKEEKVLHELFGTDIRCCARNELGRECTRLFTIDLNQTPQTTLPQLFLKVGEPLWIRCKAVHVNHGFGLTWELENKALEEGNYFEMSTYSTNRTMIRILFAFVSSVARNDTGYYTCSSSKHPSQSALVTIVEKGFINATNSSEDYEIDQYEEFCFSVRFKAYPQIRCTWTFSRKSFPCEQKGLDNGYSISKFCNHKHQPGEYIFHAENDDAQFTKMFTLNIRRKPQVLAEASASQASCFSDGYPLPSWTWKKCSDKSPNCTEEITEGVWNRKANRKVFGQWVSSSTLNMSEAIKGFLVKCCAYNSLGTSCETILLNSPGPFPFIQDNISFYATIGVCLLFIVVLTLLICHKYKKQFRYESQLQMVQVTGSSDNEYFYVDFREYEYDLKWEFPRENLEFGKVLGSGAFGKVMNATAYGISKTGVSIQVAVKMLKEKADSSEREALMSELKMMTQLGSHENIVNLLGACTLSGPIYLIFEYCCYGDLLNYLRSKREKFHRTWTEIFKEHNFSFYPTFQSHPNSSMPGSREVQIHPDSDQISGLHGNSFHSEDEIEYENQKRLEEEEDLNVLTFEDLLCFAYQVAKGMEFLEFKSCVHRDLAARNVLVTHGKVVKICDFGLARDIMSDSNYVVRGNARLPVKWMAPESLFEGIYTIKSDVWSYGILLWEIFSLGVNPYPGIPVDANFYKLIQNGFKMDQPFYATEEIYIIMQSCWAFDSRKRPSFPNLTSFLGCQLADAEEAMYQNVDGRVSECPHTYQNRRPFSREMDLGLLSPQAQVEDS
Protocol: Specific cellular inhibition of FLT ligand-induced wild-type FLT3 phosphorylation was measured in the following manner: Baf3 FLT3 cells overexpressing the FLT3 receptor were obtained from Dr. Michael Heinrich (Oregon Health and Sciences University).

[2] = molecular target: T2, isolated kinase domain of the human FLT3 receptor (a.a. 571-993) (Homo sapiens, UniProt P36888); assay: FLT3 fluorescence polarization kinase assay; type: biochemical; conditions: uncertainty ±10%
T2 construct: human FLT3 receptor (a.a. 571-993)
T2 sequence (P36888 571-993): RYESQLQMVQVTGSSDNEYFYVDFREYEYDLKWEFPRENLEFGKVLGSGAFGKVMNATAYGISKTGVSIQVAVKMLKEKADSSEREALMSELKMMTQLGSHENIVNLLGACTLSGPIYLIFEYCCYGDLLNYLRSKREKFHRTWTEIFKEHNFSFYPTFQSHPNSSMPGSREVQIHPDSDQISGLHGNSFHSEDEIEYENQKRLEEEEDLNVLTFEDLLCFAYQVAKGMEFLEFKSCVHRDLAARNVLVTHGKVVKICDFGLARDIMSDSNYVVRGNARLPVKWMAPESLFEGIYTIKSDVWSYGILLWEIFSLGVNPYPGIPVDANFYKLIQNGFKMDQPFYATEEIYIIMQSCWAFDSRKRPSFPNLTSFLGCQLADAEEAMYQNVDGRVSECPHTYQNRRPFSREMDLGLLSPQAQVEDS
Source text: The FLT3 FP assay utilizes the fluorescein-labeled phosphopeptide and the anti-phosphotyrosine antibody included in the Panvera Phospho-Tyrosine Kinase Kit (Green) supplied by Invitrogen. When FLT3 phosphorylates polyGlu4Tyr, the fluorescein-labeled phosphopeptide is displaced from the anti-phosphotyrosine antibody by the phosphorylated poly Glu4Tyr, thus decreasing the FP value. […] The kinase reaction is stopped with the addition of EDTA. The fluorescein-labeled phosphopeptide and the anti-phosphotyrosine antibody are added and incubated for 30 minutes at room temperature.

MV4-11 cells = assay: Inhibition of MV4-11 cell proliferation (CellTiterGlo); conditions: Homo sapiens, MV4-11, 72 h, read-out: MV4-11 (uM)
Protocol: To measure total cell growth an equal volume of CellTiterGlo reagent was added to each well, according to the manufacturer's instructions, and luminescence was quantified.
MV4-11 cells express the FLT3 internal tandem duplication mutation, and thus are entirely dependent upon FLT3 activity for growth. […] In contrast, the Baf3 cell proliferation is driven by the cytokine IL-3 and thus are used as a non-specific toxicity control for test compounds.

| SMILES | IC50 [1] [nM] | IC50 [2] [nM] | IC50 (MV4-11 cells) [µM] |
| --- | --- | --- | --- |
| NCCO/N=C/c1c(N)ncnc1N1CCN(C(=O)Nc2ccc(OC3CCC3)nc2)CC1 [Compound 31, 4-{6-Amino-5-[(2-amino-ethoxyimino)-methyl]-pyrimidin-4-yl}-piperazine-1-carboxylic acid (6-cyclobutoxy-pyridin-3-yl)-amide] | 206 | 1450 | 1.3 |
| Nc1ncnc(N2CCN(C(=O)Nc3ccc(N4CCOCC4)cc3)CC2)c1/C=N/OCCN1CCOCC1 [Compound 29, 4-{6-Amino-5-[(2-morpholin-4-yl-ethoxyimino)-methyl]-pyrimidin-4-yl}-piperazine-1-carboxylic acid (4-morpholin-4-yl-phenyl)-amide] |  | > 10000 | 3 |
| CCO/N=C/c1c(N)ncnc1N1CCN(C(=O)Cc2ccc(C(C)C)cc2)CC1 [Compound 13, 4-Amino-6-{4-[2-(4-isopropyl-phenyl)-acetyl]-piperazin-1-yl}-pyrimidine-5-carbaldehyde O-ethyl-oxime (anti-configuration for —C═N—O—)] | 116 | 8 | 0.013 |
| CS(=O)(=O)NCCO/N=C/c1c(N)ncnc1N1CCN(C(=O)Nc2ccc(OC3CCC3)nc2)CC1 [Compound 33, 4-{6-Amino-5-[(2-methanesulfonylamino-ethoxyimino)-methyl]-pyrimidin-4-yl}-piperazine-1-carboxylic acid (6-cyclobutoxy-pyridin-3-yl)-amide] |  | 1150 | 2.8 |
| CCO/N=C/c1c(N)ncnc1N1CCN(C(=O)Nc2ccc(N3CCOCC3)cc2)CC1 [Compound 15, 4-[6-Amino-5-(ethoxyimino-methyl)-pyrimidin-4-yl]-piperazine-1-carboxylic acid (4-morpholin-4-yl-phenyl)-amide] | 735 | 126 | 0.35 |
| CO/N=C/c1c(N)ncnc1N1CCCN(C(=O)Nc2ccc(OC(C)C)cc2)CC1 [Compound 24, 4-[6-Amino-5-(methoxyimino-methyl)-pyrimidin-4-yl]-[1,4]diazepane-1-carboxylic acid (4-isopropoxy-phenyl)-amide] | 16 | 122 | 0.66 |
| CCNC(=O)NCCO/N=C/c1c(N)ncnc1N1CCN(C(=O)Nc2ccc(OC(C)C)cc2)CC1 [Compound 26, 4-(6-Amino-5-{[2-(3-ethyl-ureido)-ethoxyimino]-methyl}-pyrimidin-4-yl)-piperazine-1-carboxylic acid (4-isopropoxy-phenyl)-amide] |  |  | > 1 |
| CC(C)Oc1ccc(NC(=O)N2CCN(c3ncnc(N)c3/C=N/OCCN)CC2)cc1 [Compound 25, 4-{6-Amino-5-[(2-amino-ethoxyimino)-methyl]-pyrimidin-4-yl}-piperazine-1-carboxylic acid (4-isopropoxy-phenyl)-amide] |  | 1150 | 2 |
| Nc1ncnc(N2CCN(C(=O)Nc3ccc(OC4CCC4)nc3)CC2)c1/C=N/OCCN1CCOCC1 [Compound 30, 4-{6-Amino-5-[(2-morpholin-4-yl-ethoxyimino)-methyl]-pyrimidin-4-yl}-piperazine-1-carboxylic acid (6-cyclobutoxy-pyridin-3-yl)-amide] |  | 1740 | 2.5 |
| NCCO/N=C/c1c(N)ncnc1N1CCN(C(=O)Nc2ccc(N3CCCC3)cc2)CC1 [Compound 34, 4-{6-Amino-5-[(2-amino-ethoxyimino)-methyl]-pyrimidin-4-yl}-piperazine-1-carboxylic acid (4-pyrrolidin-1-yl-phenyl)-amide] |  | 1510 | 2.5 |
| CCO/N=C\c1c(N)ncnc1N1CCN(C(=O)Cc2ccc(C(C)C)cc2)CC1 [Compound 14, 4-Amino-6-{4-[2-(4-isopropyl-phenyl)-acetyl]-piperazin-1-yl}-pyrimidine-5-carbaldehyde O-ethyl-oxime (syn-configuration for —C═N—O—)] | 158 | 24 | 0.029 |
| CO/N=C/c1c(N)ncnc1N1CCN(C(=O)Cc2ccc(C(C)C)cc2)CC1 [Compound 7, 4-Amino-6-{4-[2-(4-isopropyl-phenyl)-acetyl]-piperazin-1-yl}-pyrimidine-5-carbaldehyde O-methyl-oxime] | 2 | 14 | 0.024 |
| NCCO/N=C/c1c(N)ncnc1N1CCN(C(=O)Nc2ccc(N3CCOCC3)cc2)CC1 [Compound 32, 4-{6-Amino-5-[(2-amino-ethoxyimino)-methyl]-pyrimidin-4-yl}-piperazine-1-carboxylic acid (4-morpholin-4-yl-phenyl)-amide] | 77 | 5150 | 0.79 |
